# Data as given in patent publication US6858597B2, “Halogenated sulphamate-, phosphonate-, thiophosphonate-, sulphonate- and sulphonamide- compounds as inhibitors of steroid sulphatase” (Sterix Limited, priority 1999, dated 2005).
# Key:
# T47D cells = assay: Effect of Halo-EMATEs on T47D cell growth (plate assay); assay type: cell-based; parameters: key to Morphology: +: has effect on cell morphology; conditions: for inhibition at 1 µM / inhibition at 10 µM: Homo sapiens, 24 h
# Method: Effect of Halo-EMATES on T47D Cell Growth (Plate Assay)
# T47D receptor positive breast cancer cells were seeded into a 96 well cell culture plate and allowed to grow until approximately 70% confluent. Cells were treated with either vehicle (controls, tetrahydrofuran in medium) or halo-EMATEs (1 or 10 μM) and cultured for a further 24 h. At the end of this period effects of the drugs on cell numbers were determined using a microtitre plate assay (Cell Titre 96 cell proliferation assay, Promega). In this assay the conversion of substrate by untreated cells at the end of the culture period was set at 100%.
# steroid sulphatase (STS) = target: T1, steroid sulphatase (STS) (Homo sapiens, UniProt P08842); assay: STS inhibition, IC50 (protocol not given); assay type: biochemical; conditions: assay not given
# T1 construct: Placental microsomes were obtained by centrifugation of the resulting supernatant at 100,000×g for 1 h; from tissue; host or cells: human placenta (microsomes)
# T1 sequence (P08842 22-583): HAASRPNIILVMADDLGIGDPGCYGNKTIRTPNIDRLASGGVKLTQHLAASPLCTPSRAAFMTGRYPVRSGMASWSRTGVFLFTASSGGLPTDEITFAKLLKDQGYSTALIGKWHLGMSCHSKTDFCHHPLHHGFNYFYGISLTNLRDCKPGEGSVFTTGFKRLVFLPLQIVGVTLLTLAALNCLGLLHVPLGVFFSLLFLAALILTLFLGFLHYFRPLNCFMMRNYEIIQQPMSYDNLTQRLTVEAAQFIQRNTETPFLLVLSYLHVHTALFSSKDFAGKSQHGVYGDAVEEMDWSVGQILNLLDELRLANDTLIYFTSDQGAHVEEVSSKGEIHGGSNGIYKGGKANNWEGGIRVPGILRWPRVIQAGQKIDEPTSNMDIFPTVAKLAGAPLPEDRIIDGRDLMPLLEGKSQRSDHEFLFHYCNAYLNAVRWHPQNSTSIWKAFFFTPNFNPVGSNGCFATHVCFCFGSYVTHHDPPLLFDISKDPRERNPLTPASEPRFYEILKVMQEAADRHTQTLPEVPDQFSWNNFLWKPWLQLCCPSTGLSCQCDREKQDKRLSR
# Method: Sulphatase-positive human placenta from normal term pregnancies are thoroughly minced with scissors and washed once with cold phosphate buffer (pH 7.4, 50 mM) then re-suspended in cold phosphate buffer (5 ml/g tissue). Homogenisation is accomplished with an Ultra-Turrax homogeniser, using three 10 second bursts separated by 2 minute cooling periods in ice. Nuclei and cell debris are removed by centrifuging (4° C.) at 2000 g for 30 minutes and portions (2 ml) of the supernatant are stored at […] The protein concentration of the supernatants is determined by the method of Bradford (Anal. Biochem., 72, 248-254 (1976)).
# Incubations (1 ml) are carried out using a protein concentration of […], substrate concentration of […] [6,7-3H]oestrone-3-sulphate (specific activity 60 Ci/mmol from New England Nuclear, Boston, Mass., U.S.A.) and an incubation time of 20 minutes at 37° C. If necessary eight concentrations of compounds are employed: 0 (i.e. control); 0.05 mM; 0.1 mM; 0.2 mM; 0.4 mM; 0.6 mM; 0.8 mM; 1.0 mM. After incubation each sample is cooled and the medium (1 ml) was pipetted into separate tubes containing [14C]oestrone (7×10^3 dpm) (specific activity 97 Ci/mmol from Amersham International Radiochemical Centre, Amersham, U.K.). The mixture is shaken thoroughly for 30 seconds with toluene (5 ml). Experiments have shown that >90% [14C]oestrone and <0.1% [3H]oestrone-3-sulphate is removed from the aqueous phase by this treatment. A portion (2 ml) of the organic phase was removed, evaporated and the 3H and 14C content of the residue determined by scintillation spectrometry. The mass of oestrone-3-sulphate hydrolysed is calculated from the 3H counts obtained (corrected for the volumes of the medium and organic phase used, and for recovery of [14C]oestrone added) and the specific activity of the substrate.
# A sulphatase—positive human placenta was used as a source of placental microsomes. Tissue was homogenised and nuclei and cell debris removed by centrifugation at 2000×g for 30 min. Placental microsomes were obtained by centrifugation of the resulting supernatant at 100,000×g for 1 h.
# For inhibition studies placental microsomes (125 μg/ml) were incubated in the absence or presence of inhibitors (1 pm-1.0 μM) with ^3H estrone sulphate (E1S, 2×10^5 dpm adjusted to 20 μM with unlabelled E1S for 60 mins. [4-^14C E1] (7×10^3 dpm) was added to correct for procedural losses and free and sulphated steroids separated by solvent partition using toluene. A portion of the solvent was removed and the ^3H and ^14C content determined by liquid scintillation spectrometry.
# steroid sulphatase = target: T2, steroid sulphatase (Homo sapiens, UniProt P08842); conditions: compared with EMATE, cited from earlier work; for E1-STS inactivation: 3-O-atom replaced by other heteroatoms
# T2 sequence (P08842 22-583): T1 sequence (P08842 22-583)
# MCF-7 cells = assay: Plate Assay in MCF-7 cells; assay type: cell-based; conditions: Homo sapiens, MCF7
# rats = conditions: cited from earlier work
# [1] = cited from earlier work
# E1-STS = target: T3, E1-STS (Homo sapiens, UniProt P08842); conditions: intact MCF-7 cells, 0.1 mM; cited from earlier work
# T3 construct: endogenous in cells; host or cells: MCF-7
# T3 sequence (P08842 22-583): T1 sequence (P08842 22-583)
compound,measurement,setting,value
"C[C@]12CCC3c4cc(F)c(OS(N)(=O)=O)cc4CCC3C1CCC2=O (stereo partly shown) [Compound 13, 2-Fluorooestrone-3-O-sulphamate]",Morphology,T47D cells,+
same,inhibition at 1 µM,T47D cells,< 1%
same,inhibition at 10 µM,T47D cells,30%
same,IC50,steroid sulphatase (STS),5.6 nM
oestrone-3-S-sulphamate,E1-STS inactivation,steroid sulphatase,weaker non-time-dependent inactivators
"C[C@]12CC[C@@H]3c4cc(I)c(OS(N)(=O)=O)cc4CC[C@H]3[C@@H]1CCC2=O [Compound 7, 2-Iodooestrone 3-O-sulphamate]",Morphology,T47D cells,+
same,IC50,steroid sulphatase (STS),6.1 nM
same,inhibition at 10 µM,MCF-7 cells,25%
COc1cc2c(cc1OS(N)(=O)=O)CC[C@@H]1[C@@H]2CC[C@]2(C)C(=O)CC[C@@H]12 [2-methoxyoestrone-3-O-sulphamate],oestrogenicity,"rats; rat, in vivo",devoid of oestrogenicity
same,potency as steroid sulphatase inhibitor,steroid sulphatase,equipotent with EMATE
"C[C@]12CC[C@@H]3c4ccc(OS(=O)(=O)O)cc4CC[C@H]3[C@@H]1CCC2=O [Compound E1S, oestrone sulphate]",half-life in blood,[1],10 to 12 h
"C[C@]12CC[C@@H]3c4cc(Br)c(OS(N)(=O)=O)cc4CC[C@H]3[C@@H]1CCC2=O [Compound 4, 2-Bromooestrone 3-O-sulphamate]",Morphology,T47D cells,+
same,IC50,steroid sulphatase (STS),1.65 nM
same,inhibition at 10 µM,MCF-7 cells,33%
"CC12CCC3c4ccc(OS(N)(=O)=O)cc4CCC3C1CCC2=O (stereo not shown) [EMATE, oestrone-3-O-sulphamate]",oral uterotrophic activity relative to estradiol,"rats; rats, oral",100 times
same,inhibition of E1-STS activity,E1-STS,more than 99%
"C[C@]12CC[C@@H]3c4cc(Cl)c(OS(N)(=O)=O)cc4CC[C@H]3[C@@H]1CCC2=O [Compound 10, 2-Chloroestrone 3-O-sulphamate]",Morphology,T47D cells,+
same,inhibition at 1 µM,T47D cells,1%
same,inhibition at 10 µM,T47D cells,7.5%
same,IC50,steroid sulphatase (STS),0.8 nM
same,inhibition at 10 µM,MCF-7 cells,35%
oestrone-3-N-sulphamate,E1-STS inactivation,steroid sulphatase,weaker non-time-dependent inactivators
